In this test the test system is HIV-IIIb. Briefly: Test A: Antiviral Assay in MT4 Cells. To be noted: Human immunodeficiency virus 1, IIIB, MT4, 120 h. Type of test: cell-based. The method in brief: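 Read-out: CellTiter-Glo chemiluminescence after 5-day incubation at 37 °C. Compounds tested as 3-fold serial dilutions (10 concentrations, quadruplicate) in RPMI 1640 with 10% FBS, on MT-4 cells pre-infected at 37 °C with HIV-IIIb at 0.004 m.o.i.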

[1] abbreviates: Table 2, MT-4 cells infected with HIV-IIIb, 5 days of incubation, CellTiter-Glo, read-out: EC50.
Where [2] appears, read: Table 1, MT-4 cells infected with HIV-IIIb, 5 days of incubation, CellTiter-Glo, read-out: EC50.

Like-named read-outs stand apart in the source and are kept apart here.

The EC50 is the concentration giving half of the maximal effect. With `Cc1cc2nc(N3CCN(C(=O)OC(C)(C)C)C(c4ccc5c(cnn5C)c4)C3)sc2c(-c2ccc(Cl)cc2)c1[C@H](OC(C)(C)C)C(=O)O` (stereo partly drawn) [Compound 276, (2S)-2-tert-butoxy-2-(2-(4-(tert-butoxycarbonyl)-3-(1-methyl-1H-indazol-5-yl)piperazin-1-yl)-7-(4-chlorophenyl)-5-methylbenzo[d]thiazol-6-yl)acetic acid], under setting [1], the concentration for a half-maximal effect (EC50) worked out at 0.037 µM.
The same measure, in the same setting: in the case of `Cc1cc2nc(N3CC[C@H]4CCCC[C@@H]4C3)sc2c(-c2ccc(Cl)cc2)c1[C@H](OC(C)(C)C)C(=O)O` [Compound 438] it was 0.258 µM; in that of `Cc1ccc2c(c1)CCN2c1nc2cc(C)c([C@H](OC(C)(C)C)C(=O)O)c(-c3ccc(Cl)cc3)c2s1` [Compound 243, (S)-2-tert-butoxy-2-(7-(4-chlorophenyl)-5-methyl-2-(5-methylindolin-1-yl)benzo[d]thiazol-6-yl)acetic acid], 0.424 µM.
Regarding `Cc1cc2nc(-c3cccc(-c4cnc(O)nc4)c3)sc2c(-c2ccc(Cl)cc2)c1[C@H](OC(C)(C)C)C(=O)O` [Compound 144], the EC50 under setting [2] was determined as 2.61 µM.
`COc1ccc2cc(-c3cc(-c4nc5cc(C)c([C@H](OC(C)(C)C)C(=O)O)c(-c6ccc(Cl)cc6)c5s4)ccn3)ccc2n1` [Compound 457]: under setting [1], the 50% effective concentration (EC50) stood at 0.096 µM.
For `Cc1cc2nc(-c3ccc4ncn(C)c4c3)sc2c(-c2ccc(Cl)cc2)c1[C@H](OC(C)(C)C)C(=O)O` [Compound 283, (S)-2-tert-butoxy-2-(7-(4-chlorophenyl)-5-methyl-2-(1-methyl-1H-benzo[d]imidazol-6-yl)benzo[d]thiazol-6-yl)acetic acid], the EC50 under setting [1] came out at 0.051 µM.
For the compound `Cc1cc2nc(-c3cccc(-c4ccc(N5CCN(C)CC5)nc4)c3)sc2c(-c2ccc(Cl)cc2)c1[C@H](OC(C)(C)C)C(=O)O` [Compound 153], the EC50 under setting [2] turned out to be 0.015 µM.
In the case of `Cc1cc2nc(-c3ccc(-c4cnn(C)c4C)cc3)sc2c(-c2ccc(Cl)cc2)c1[C@H](OC(C)(C)C)C(=O)O` [Compound 204, (S)-2-tert-butoxy-2-(7-(4-chlorophenyl)-2-(4-(1,5-dimethyl-1H-pyrazol-4-yl)phenyl)-5-methylbenzo[d]thiazol-6-yl)acetic acid], the EC50 under setting [1] was 0.155 µM.
With `Cc1cc2nc(-c3ccnc(-c4cccc(-c5nnn[nH]5)c4)c3)sc2c(-c2ccc(Cl)cc2)c1[C@H](OC(C)(C)C)C(=O)O` [Compound 122, (S)-2-(2-(2-(3-(1H-tetrazol-5-yl)phenyl)pyridin-4-yl)-7-(4-chlorophenyl)-5-methylbenzo[d]thiazol-6-yl)-2-tert-butoxyacetic acid], the EC50 under setting [2] came to 5.52 µM.
Take `Cc1cc2nc(-c3ccnc(-c4cc(C)c5[nH]ncc5c4)c3)sc2c(-c2ccc(Cl)cc2)c1[C@H](OC(C)(C)C)C(=O)O` [Compound 422]: the EC50 under setting [1] was 0.032 µM.
Take `Cc1cc2nc(-c3ccnc(N4CC5CCCCN5C4=O)c3)sc2c(-c2ccc(Cl)cc2)c1[C@H](OC(C)(C)C)C(=O)O` (stereo partly shown) [Compound 456]: the 50% effective concentration (EC50) under setting [1] stood at 0.02 µM.
For `CCc1cnn2cc(-c3nc4cc(C)c([C@H](OC(C)(C)C)C(=O)O)c(-c5ccc(Cl)cc5)c4s3)cnc12` [Compound 227, (S)-2-tert-butoxy-2-(7-(4-chlorophenyl)-2-(3-ethylpyrazolo[1,5-a]pyrimidin-6-yl)-5-methylbenzo[d]thiazol-6-yl)acetic acid], the EC50 under setting [1] was found to be 0.085 µM.
Same read-out and setting: in the case of `Cc1cc2nc(-c3ncc(N4CCN(C(C)C)CC4)s3)sc2c(-c2ccc(Cl)cc2)c1[C@H](OC(C)(C)C)C(=O)O` [Compound 486, (S)-2-tert-butoxy-2-(7-(4-chlorophenyl)-2-(5-(4-isopropylpiperazin-1-yl)thiazol-2-yl)-5-methylbenzo[d]thiazol-6-yl)acetic acid] it was 0.031 µM.
Same read-out and setting: in the case of `Cc1cc2nc(-c3ccnc(-c4ccc5c(c4)N(C)C(=O)CO5)c3)sc2c(-c2ccc(Cl)cc2)c1[C@H](OC(C)(C)C)C(=O)O` [Compound 393] it was 0.033 µM; in that of `Cc1cc2nc(-c3ccnc(N4CCc5cnccc54)c3)sc2c(-c2ccc(Cl)cc2)c1[C@H](OC(C)(C)C)C(=O)O` [Compound 245, (S)-2-tert-butoxy-2-(7-(4-chlorophenyl)-2-(2-(2,3-dihydro-1H-pyrrolo[3,2-c]pyridin-1-yl)pyridin-4-yl)-5-methylbenzo[d]thiazol-6-yl)acetic acid], 0.009 µM.
In the case of `Cc1cc2nc(-c3cnc(C)c(-c4ccc5c(cnn5C)n4)c3)sc2c(-c2ccc(Cl)cc2)c1[C@H](OC(C)(C)C)C(=O)O` [Compound 490, (S)-2-tert-butoxy-2-(7-(4-chlorophenyl)-5-methyl-2-(6-methyl-5-(1-methyl-1H-pyrazolo[4,3-b]pyridin-5-yl)pyridin-3-yl)benzo[d]thiazol-6-yl)acetic acid], the midpoint of the response, the EC50, lay at 0.003 µM.
For `Cc1cc2nc(N3CCN(C)[C@@H](c4ccc5c(cnn5C)c4)C3)sc2c(-c2ccc(Cl)cc2)c1[C@H](OC(C)(C)C)C(=O)O` [Compound 491, (S)-2-tert-butoxy-2-(7-(4-chlorophenyl)-5-methyl-2-((S)-4-methyl-3-(1-methyl-1H-indazol-5-yl)piperazin-1-yl)benzo[d]thiazol-6-yl)acetic acid], the EC50 under setting [1] was found to be 0.051 µM.
On the same count and under the same terms, in the case of `Cc1cc2nn(C)cc2cc1-c1cc(-c2nc3cc(C)c([C@H](OC(C)(C)C)C(=O)O)c(-c4ccc(Cl)cc4)c3s2)ccn1` [Compound 416] it was 0.025 µM; in that of `CCN1CCN(c2cc(-c3nc4cc(C)c([C@H](OC(C)(C)C)C(=O)O)c(-c5ccc(Cl)cc5)c4s3)ccn2)CC1` [Compound 220, (S)-2-tert-butoxy-2-(7-(4-chlorophenyl)-2-(2-(4-ethylpiperazin-1-yl)pyridin-4-yl)-5-methylbenzo[d]thiazol-6-yl)acetic acid], 0.043 µM; in that of `Cc1cc2nc(-c3ccnc(-c4ccc5c(=O)n(C)n(C)c5c4)c3)sc2c(-c2ccc(Cl)cc2)c1[C@H](OC(C)(C)C)C(=O)O` [Compound 188, (S)-2-tert-butoxy-2-(7-(4-chlorophenyl)-2-(2-(1,2-dimethyl-3-oxo-2,3-dihydro-1H-indazol-6-yl)pyridin-4-yl)-5-methylbenzo[d]thiazol-6-yl)acetic acid], 0.012 µM.
Same read-out and setting: in the case of `Cc1cc2nc(-c3cc(-c4ccc5c(cnn5C)c4)nnc3C)sc2c(-c2ccc(Cl)cc2)c1[C@H](OC(C)(C)C)C(=O)O` [Compound 335] it was 0.014 µM; in that of `Cc1cc2nc(-c3ccc4c(c3)c(N(C)C)nn4C)sc2c(-c2ccc(Cl)cc2)c1[C@H](OC(C)(C)C)C(=O)O` [Compound 258, (S)-2-tert-butoxy-2-(7-(4-chlorophenyl)-2-(3-(dimethylamino)-1-methyl-1H-indazol-5-yl)-5-methylbenzo[d]thiazol-6-yl)acetic acid], 0.013 µM.
With `Cc1cc2nc(-c3ccc4c(n3)c(-c3cccnc3)nn4C)sc2c(-c2ccc(Cl)cc2)c1[C@H](OC(C)(C)C)C(=O)O` [Compound 496, (S)-2-tert-butoxy-2-(7-(4-chlorophenyl)-5-methyl-2-(1-methyl-3-(pyridin-3-yl)-1H-pyrazolo[4,3-b]pyridin-5-yl)benzo[d]thiazol-6-yl)acetic acid], the EC50 under setting [1] was found to be 0.005 µM.
Same read-out and setting: in the case of `Cc1cc2nc(-c3ccnc(N4CC[C@@H](N(C)C)C4)n3)sc2c(-c2ccc(Cl)cc2)c1[C@H](OC(C)(C)C)C(=O)O` [Compound 479, (S)-2-tert-butoxy-2-(7-(4-chlorophenyl)-2-(2-((R)-3-(dimethylamino)pyrrolidin-1-yl)pyrimidin-4-yl)-5-methylbenzo[d]thiazol-6-yl)acetic acid] it was 0.004 µM; in that of `Cc1cc2nc(-c3ccc4c(c3)CN(C)C4=O)sc2c(-c2ccc(Cl)cc2)c1[C@H](OC(C)(C)C)C(=O)O` [Compound 248, (S)-2-tert-butoxy-2-(7-(4-chlorophenyl)-5-methyl-2-(2-methyl-1-oxoisoindolin-5-yl)benzo[d]thiazol-6-yl)acetic acid], 0.013 µM.
Turning to `Cc1cc2nc(N3CCc4cccnc4C3)sc2c(-c2ccc(Cl)cc2)c1[C@H](OC(C)(C)C)C(=O)O` [Compound 433], under setting [1], the EC50 worked out at 0.038 µM.
Same read-out and setting: in the case of `Cc1cnc2n(C)cc(-c3cc(-c4nc5cc(C)c([C@H](OC(C)(C)C)C(=O)O)c(-c6ccc(Cl)cc6)c5s4)ccn3)cc1-2` [Compound 385] it was 0.143 µM.
Regarding `Cc1cc2nc(N3CCNC(c4ccc5c(cnn5C)c4)C3=O)sc2c(-c2ccc(Cl)cc2)c1[C@H](OC(C)(C)C)C(=O)O` (stereo partly drawn) [Compound 275, (2S)-2-tert-butoxy-2-(7-(4-chlorophenyl)-5-methyl-2-(3-(1-methyl-1H-indazol-5-yl)-2-oxopiperazin-1-yl)benzo[d]thiazol-6-yl)acetic acid], the EC50 under setting [1] came out at 0.021 µM.
Turning to `Cc1cc2nc(-c3ccc(-c4ccc(Br)cc4)cc3)sc2c(-c2ccc(Cl)cc2)c1[C@H](OC(C)(C)C)C(=O)O` [Compound 354], the EC50 under setting [1] was determined as 1.37 µM.
As for `Cc1cc2nc(-c3cccc(-c4ccc5c(cnn5C)c4)c3)sc2c(-c2cc(F)c3c(c2C)CCCO3)c1[C@H](OC(C)(C)C)C(=O)O` (atropisomer, axis not shown) [Compound 168], the EC50 under setting [2] came to 0.042 µM.
`Cc1cc2nc(-c3cccc4c3OCC(=O)N4)sc2c(-c2ccc(Cl)cc2)c1[C@H](OC(C)(C)C)C(=O)O` [Compound 388]: the concentration giving a half-maximal response (EC50) under setting [1] was found to be 0.028 µM.
Turning to `Cc1cc2nc(-c3ccnc(N4CCC(N(C)C)CC4)n3)sc2c(-c2ccc(Cl)cc2)c1[C@H](OC(C)(C)C)C(=O)O` [Compound 334], the EC50 under setting [1] stood at 0.005 µM.
The same measure, in the same setting: in the case of `Cc1cc2nc(-n3ccc4cnccc4c3=O)sc2c(-c2ccc(Cl)cc2)c1[C@H](OC(C)(C)C)C(=O)O` [Compound 450] it was 0.025 µM; in that of `Cc1cc2nc(-c3ccnc(-c4cnc5c(c4)OCC(=O)N5)c3)sc2c(-c2ccc(Cl)cc2)c1[C@H](OC(C)(C)C)C(=O)O` [Compound 184, (S)-2-tert-butoxy-2-(7-(4-chlorophenyl)-5-methyl-2-(2-(3-oxo-3,4-dihydro-2H-pyrido[3,2-b][1,4]oxazin-7-yl)pyridin-4-yl)benzo[d]thiazol-6-yl)acetic acid], 0.019 µM.
